Patent US11999727B2 (Tango Therapeutics, Inc., priority 2020, dated 2024)

Columns and labels:
[1] = tested on: HAP1 MTAP-deleted cell line; experiment: SDMA in-cell western assay, HAP1 MTAP-deleted; assay type: cell-based; conditions: for IC50: Homo sapiens, HAP1, SDMA in-cell western, HAP1 MTAP-deleted; for MTAP intact/deleted ratio: SDMA in-cell western
Outline: (§1)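 Isogenic HAP1 pair: the MTAP-intact line expresses endogenous MTAP, and the deleted line is MTAP-null. Symmetric dimethylarginine was detected by in-cell western and IC50 values derived for each line.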

[2] = target: T1, PRMT5 (Homo sapiens, UniProt O14744); experiment: PRMT5 biochemical IC50 assay with MTA as cofactor; conditions: PRMT5, MTA as cofactor; read-out: MTA IC50
T1 construct: purchased Viva (custom protein)
T1 sequence (O14744 whole entry): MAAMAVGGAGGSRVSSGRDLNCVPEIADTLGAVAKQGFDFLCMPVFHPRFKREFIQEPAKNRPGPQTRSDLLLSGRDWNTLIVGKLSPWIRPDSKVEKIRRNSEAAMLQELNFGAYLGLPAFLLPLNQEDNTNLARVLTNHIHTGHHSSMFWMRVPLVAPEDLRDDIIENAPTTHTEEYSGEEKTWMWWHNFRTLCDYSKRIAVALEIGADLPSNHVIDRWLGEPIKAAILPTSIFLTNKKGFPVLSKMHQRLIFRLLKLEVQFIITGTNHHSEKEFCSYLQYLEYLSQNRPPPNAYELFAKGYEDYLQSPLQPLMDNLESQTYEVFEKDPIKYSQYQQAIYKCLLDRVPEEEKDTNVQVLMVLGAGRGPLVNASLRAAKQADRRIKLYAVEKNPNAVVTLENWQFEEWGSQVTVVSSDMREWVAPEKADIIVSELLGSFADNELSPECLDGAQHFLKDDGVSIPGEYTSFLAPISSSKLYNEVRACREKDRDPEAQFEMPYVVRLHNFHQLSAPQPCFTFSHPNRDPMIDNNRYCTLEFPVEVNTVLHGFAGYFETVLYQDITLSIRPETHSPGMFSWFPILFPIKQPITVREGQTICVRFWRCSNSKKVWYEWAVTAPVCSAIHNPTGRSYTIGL
T1 sequence (Q9BQA1 whole entry partner): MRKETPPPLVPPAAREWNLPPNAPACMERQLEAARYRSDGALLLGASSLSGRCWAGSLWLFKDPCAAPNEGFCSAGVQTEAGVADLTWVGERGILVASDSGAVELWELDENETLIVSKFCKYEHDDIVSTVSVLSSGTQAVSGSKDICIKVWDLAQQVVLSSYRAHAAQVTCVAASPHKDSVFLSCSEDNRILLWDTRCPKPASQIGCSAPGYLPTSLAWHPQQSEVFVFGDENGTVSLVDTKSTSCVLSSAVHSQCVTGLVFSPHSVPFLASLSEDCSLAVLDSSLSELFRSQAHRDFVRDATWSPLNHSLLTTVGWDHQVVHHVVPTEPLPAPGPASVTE

[3] = tested on: HAP1 MTAP-intact cell line; experiment: SDMA in-cell western assay, HAP1 MTAP-intact; assay type: cell-based; conditions: Homo sapiens, HAP1, SDMA in-cell western, HAP1 MTAP-intact; read-out: MTAP HAP1 intact IC50
Outline: as §1

[4] = target: T1, PRMT5; experiment: PRMT5 biochemical IC50 assay with SAM as cofactor; conditions: PRMT5, SAM as cofactor; read-out: SAM IC50
[5] = target: T1, PRMT5; experiment: PRMT5 biochemical IC50 assay with no cofactor; conditions: PRMT5, no cofactor
Excerpt: Table 1 indicates IC50 values (μM) against PRMT5 for exemplary compounds in the presence of SAM as cofactor, with no cofactor, and with MTA as cofactor, respectively (columns 4-6). […] Ki values can be calculated from the IC50 values as described in the Examples section. As detailed in the Examples section, for the assay performed in the presence of SAM, IC50=Ki×1.5 (Ki=IC50/1.5).

[6] = tested on: HAP1 MTAP-deleted cell line; experiment: Viability assay, MTAP-deleted cell line; assay type: cell-based; conditions: Homo sapiens, read-out: HAP1 MTAP deleted viability
Excerpt: Table 1 additionally indicates IC50 values in a viability assay for the MTAP-deleted cell line (column 10), indicating the effect of treatment with compound on cell survival.

[7] = read-out: HAP 1 MTAP deleted IC50
[8] = IC50 ratio HAP1 MTAP-intact / HAP1 MTAP-deleted
[9] = read-out: No Cofactor/ rel IC50
[10] = HAP1, viability, HAP1 MTAP-deleted cell line
[11] = HAP1, viability IC50, MTAP-deleted cell line
[12] = read-out: HAP1 MTAP deleted IC50
[13] = HAP1, viability assay, HAP1 MTAP-deleted
[14] = HAP1, viability assay, MTAP-deleted cell line

Row | Compound | IC50 [1, 7] [nM] | MTAP intact/deleted ratio [1, 8] | IC50 [2] [nM] | IC50 [3] [nM] | IC50 [4] [nM] | IC50 [5, 9] [nM] | IC50 [6, 10] [nM] | IC50 ([5]; read-out: No Cofactor/rel IC50) [nM] | IC50 [6, 11] [nM] | IC50 [1, 12] [nM] | IC50 [6, 13] [nM] | IC50 [6, 14] [nM] | MTAP intact/deleted ratio ([1]; IC50 ratio HAP1 MTAP-intact vs HAP1 MTAP-deleted)
1 | Cc1cc(NC(=O)C(=O)N2C[C@@H](C)CC[C@@H]2c2ccc(N3CCN(C)CC3)cc2)cnc1N (single isomer, unassigned) [Compound 1328] | < 100 | B (an IC50 ratio greater than or equal to 3 fold but lower than 10 fold) | < 50 | < 100 | 50 to 500 | < 50 | < 1000 |  |  |  |  |  | 
2 | Cc1cc(NC(=O)C(=O)N2C[C@@H](C)CC[C@@H]2c2ccc(C(F)(F)F)cc2)cnc1N (single isomer, unassigned) [Compound 575] | > 1000 | C (an IC50 ratio of less than 3 fold) | > 500 | > 1000 | > 500 |  |  | > 500 | > 10000 |  |  |  | 
3 | COc1ncc(NC(=O)C(=O)N2C[C@@H](C)CC[C@@H]2c2ccc(-c3cncs3)cc2)cc1C(N)=O (single isomer, unassigned) [Compound 842, 2-methoxy-5-(2-(5-methyl-2-(4-(thiazol-5-yl)phenyl)piperidin-1-yl)-2-oxoacetamido)nicotinamide] |  | B (an IC50 ratio greater than or equal to 3 fold but lower than 10 fold) | > 500 | > 1000 | > 500 |  |  | > 500 |  | > 1000 | > 10000 |  | 
4 | CCc1cc(NC(=O)C(=O)N2C[C@@H](C)CC[C@@H]2c2cccc(OC[C@@H](C)N(C)C)c2)cnc1N [Compound 1290, N-(6-amino-5-ethylpyridin-3-yl)-2-((2R,5S)-2-(3-(2-(dimethylamino)propoxy)phenyl)-5-methylpiperidin-1-yl)-2-oxoacetamide] | < 100 | A (an IC50 ratio greater than or equal to 10 fold) | < 50 | 100 to 1000 | 50 to 500 | < 50 | < 1000 |  |  |  |  |  | 
5 | COc1ncc(NC(=O)C(=O)N2C[C@H](C)CC[C@H]2c2cnc3[nH]ncc3c2)cc1C(N)=O (single isomer, unassigned) [Compound 546] | 100 to 1000 | A (an IC50 ratio greater than or equal to 10 fold) | < 50 | > 1000 | 50 to 500 |  |  | 50 to 500 | 1000 to 10000 |  |  |  | 
6 | C[C@@H]1CC[C@@H](c2ccc(C(F)(F)F)cc2)N(C(=O)C(=O)Nc2cncc(C(N)=O)c2)C1 (racemic) [Compound 251, rac-5-{2-[(2R,5S)-5-Methyl-2-[4-(trifluoromethyl)phenyl]piperidin-1-yl]-2-oxoacetamido}pyridine-3-carboxamide] |  | A (an IC50 ratio greater than or equal to 10 fold) | < 50 | > 1000 | 50 to 500 |  |  | 50 to 500 |  | < 100 |  | 1000 to 10000 | 
7 | CCc1cc(NC(=O)C(=O)N2C[C@H](C)CC[C@H]2c2ccc3sc(NC)nc3c2)cnc1N (single isomer, unassigned) [Compound 896] | > 1000 | B (an IC50 ratio greater than or equal to 3 fold but lower than 10 fold) | > 500 | > 1000 | > 500 |  |  | > 500 |  |  |  | > 10000 | 
8 | Cc1cc(NC(=O)C(=O)N2C[C@@H](C)CC[C@@H]2c2ccc(N3CCN(C)CC3)nc2)cnc1N (single isomer, unassigned) [Compound 1017] | > 1000 | C (an IC50 ratio of less than 3 fold) | > 500 | > 1000 | > 500 |  |  | > 500 |  |  |  | < 1000 | 
9 | C[C@@H]1CC[C@@H](c2cccc(N(C)C)c2)N(C(=O)C(=O)Nc2cncc(C(N)=O)c2)C1 (single isomer, unassigned) [Compound 375] |  | A (an IC50 ratio greater than or equal to 10 fold) | < 50 | > 1000 | 50 to 500 |  |  | 50 to 500 |  | < 100 |  | 1000 to 10000 | 
10 | CNS(=O)(=O)c1ccc([C@H]2CC[C@H](C)CN2C(=O)C(=O)Nc2cncc(C(N)=O)c2)cc1 (single isomer, unassigned) [Compound 722] |  | C (an IC50 ratio of less than 3 fold) | < 50 | > 1000 | 50 to 500 |  |  | 50 to 500 |  | > 1000 | > 10000 |  | 
11 | CCc1cc(NC(=O)C(=O)N2C[C@@H](C)CC[C@@H]2c2ccc(N3CCN(C)CC3)cc2)cnc1N (racemic) [Compound 1209, rac-N-(6-Amino-5-ethyl-3-pyridyl)-2-[(2S,5R)-5-methyl-2-[4-(4-methylpiperazin-1-yl)phenyl]-1-piperidyl]-2-oxo-acetamide] |  |  | < 50 | 100 to 1000 | 50 to 500 |  |  | 50 to 500 |  | < 100 |  | < 1000 | A (an IC50 ratio greater than or equal to 10 fold)
12 | CCc1cc(NC(=O)C(=O)N2C[C@H](C)CC[C@H]2c2ccc(NS(C)(=O)=O)cc2)cnc1N (single isomer, unassigned) [Compound 866] |  | C (an IC50 ratio of less than 3 fold) | > 500 | > 1000 | > 500 |  |  | > 500 |  | > 1000 | > 10000 |  | 
13 | CCc1cc(NC(=O)C(=O)N2C[C@H](C)CC[C@H]2c2ccc(N3CCC4(CCCN(C)C4)CC3)cc2)cnc1N (single isomer, unassigned) [Compound 1269] | 100 to 1000 |  | 50 to 500 | > 1000 | > 500 | > 500 | 1000 to 10000 |  |  |  |  |  | 
14 | C[C@H]1CC[C@H](c2cccc(Cl)c2)N(C(=O)C(=O)Nc2cncc(C(N)=O)c2)C1 (single isomer, unassigned) [Compound 440] |  | A (an IC50 ratio greater than or equal to 10 fold) | < 50 | > 1000 | 50 to 500 |  |  | 50 to 500 |  | < 100 |  | 1000 to 10000 | 
15 | Cc1cc(NC(=O)C(=O)N2C[C@H](C)CC[C@H]2c2cccc(C3CCN(C)CC3)c2)cnc1N (single isomer, unassigned) [Compound 1291] | 100 to 1000 |  | > 500 | > 1000 | > 500 | > 500 | > 10000 |  |  |  |  |  | 
16 | CCc1cc(NC(=O)C(=O)N2C[C@@H](C)CC[C@@H]2c2cccc(OC[C@@H]3CCCN3C)c2)cnc1N [Compound 1362, N-(6-amino-5-ethylpyridin-3-yl)-2-((2R,5S)-5-methyl-2-(3-((1-methylpyrrolidin-2-yl)methoxy)phenyl)piperidin-1-yl)-2-oxoacetamide] | < 100 | A (an IC50 ratio greater than or equal to 10 fold) | < 50 | 100 to 1000 | 50 to 500 | < 50 | < 1000 |  |  |  |  |  | 
17 | Cc1ncc(NC(=O)C(=O)N2C[C@@H](C)CC[C@@H]2c2ccc3sc(C4CCN(C)CC4)nc3c2)cc1C(N)=O [Compound 1326, 2-methyl-5-(2-((2R,5S)-5-methyl-2-(2-(1-methylpiperidin-4-yl)benzo[d]thiazol-5-yl)piperidin-1-yl)-2-oxoacetamido)nicotinamide] | < 100 | A (an IC50 ratio greater than or equal to 10 fold) | < 50 | 100 to 1000 | < 50 | < 50 | < 1000 |  |  |  |  |  | 
18 | C[C@H]1CC[C@H](c2ccc3[nH]ncc3c2)N(C(=O)C(=O)Nc2cnc(N)c(C3CC3)c2)C1 (single isomer, unassigned) [Compound 1251] | < 100 | A (an IC50 ratio greater than or equal to 10 fold) | < 50 | < 100 | < 50 | < 50 | < 1000 |  |  |  |  |  | 
19 | NC(=O)c1cncc(NC(=O)C(=O)N2C[C@@H](CC(F)(F)F)CC[C@@H]2c2ccccc2)c1 (racemic) [Compound 342, 5-[[2-Oxo-2-[(2S,5S)-2-phenyl-5-(2,2,2-trifluoroethyl)-1-piperidyl]acetyl]amino]pyridine-3-carboxamide] |  | A (an IC50 ratio greater than or equal to 10 fold) | 50 to 500 | > 1000 | 50 to 500 |  |  | > 500 |  | 100 to 1000 |  | > 10000 | 
